ChEMBL document CHEMBL1201862, “PubChem BioAssay data set” (2004)
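Five compound concentrations were applied to cells in 96-well plates for 48 hours; endpoints were derived by simple linear interpolation of the resulting dose-response curve. GI50 marks 50% less growth.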 Activity calls are given as the source filed them. No stated cut-off is given here; in the data, active = GI50 up to about 1.1 µM and inactive = higher.

Legend:
Test in all cases: NCI tumour cell line growth inhibition, 48 h
[1] = test system: 786-0
[2] = test system: A549
[3] = test system: ACHN
[4] = test system: CCRF-CEM
[5] = test system: COLO 205
[6] = test system: DLD-1
[7] = test system: DMS-273
[8] = test system: EKVX
[9] = test system: HCC 2998
[10] = test system: HCT-116
[11] = test system: HCT-15
[12] = test system: HL-60
[13] = test system: HOP-62
[14] = test system: HT-29
[15] = test system: IGROV-1
[16] = test system: K562
[17] = test system: KM-20L2
[18] = test system: KM12
[19] = test system: LOX IMVI
[20] = test system: LXFL 529
[21] = test system: M14
[22] = test system: M19-MEL
[23] = test system: MOLT-4
[24] = test system: Malme-3M
[25] = test system: NCI-H226
[26] = test system: NCI-H23
[27] = test system: NCI-H460
[28] = test system: NCI-H522
[29] = test system: OVCAR-3
[30] = test system: OVCAR-8
[31] = test system: RPMI-8226
[32] = test system: RXF 393
[33] = test system: SF-268
[34] = test system: SF-295
[35] = test system: SF-539
[36] = test system: SK-MEL-28
[37] = test system: SK-OV-3
[38] = test system: SN12C
[39] = test system: SNB-19
[40] = test system: SNB-75
[41] = test system: SNB-78
[42] = test system: SR
[43] = test system: SW-620
[44] = test system: TK-10
[45] = test system: U-251
[46] = test system: UACC-257
[47] = test system: UACC-62
[48] = test system: UO-31
[49] = test system: DMS-114
[50] = test system: HOP-18
[51] = test system: HOP-92
[52] = test system: OVCAR-4
[53] = test system: SK-MEL-2
[54] = test system: SK-MEL-5
[55] = test system: A498
[56] = test system: BT-549
[57] = test system: CAKI-1
[58] = test system: DU-145
[59] = test system: Hs-578T
[60] = test system: MCF7
[61] = test system: MDA-MB-231
[62] = test system: MDA-MB-435
[63] = test system: MDA-N
[64] = test system: NCI/ADR-RES
[65] = test system: OVCAR-5
[66] = test system: PC-3
[67] = test system: T47D

Measured: GI50

CC(=O)OC1CC2CCN3C(=O)c4cc5c(cc4[C@H](C1OC(C)=O)C23)OCO5 (some centres not stated)
inactive: [1] > 100 µM | [2] > 100 µM | [3] > 100 µM | [4] > 100 µM | [5] > 100 µM | [6] > 100 µM | [7] > 100 µM | [8] > 100 µM | [9] > 100 µM | [10] > 100 µM | [12] > 100 µM | [13] > 100 µM | [14] > 100 µM | [15] > 100 µM | [16] > 100 µM | [17] > 100 µM | [18] > 100 µM | [19] > 100 µM | [20] > 100 µM | [21] > 100 µM | [22] > 100 µM | [23] > 100 µM | [24] > 100 µM | [25] > 100 µM | [26] > 100 µM | [27] > 100 µM | [28] > 100 µM | [29] > 100 µM | [30] > 100 µM | [31] > 100 µM | [32] > 100 µM | [33] > 100 µM | [34] > 100 µM | [35] > 100 µM | [36] > 100 µM | [37] > 100 µM | [38] > 100 µM | [39] > 100 µM | [40] > 100 µM | [41] > 100 µM | [42] > 100 µM | [43] > 100 µM | [44] > 100 µM | [45] > 100 µM | [46] > 100 µM | [47] > 100 µM | [48] > 100 µM
> 100 µM: [11]

Cc1c2cc[n+](C)cc2c(C)c2c1[nH]c1ccc(OCC(F)(F)F)cc12
inactive: [2] 2.12 µM | [4] 7.31 µM | [6] 1.36 µM | [49] 1.47 µM | [7] 1.49 µM | [9] 7.14 µM | [10] 3.37 µM | [50] 3.72 µM | [51] 2.08 µM | [14] 4.11 µM | [15] 2.77 µM | [16] 3.83 µM | [17] 3.98 µM | [18] 3.41 µM | [22] 2.09 µM | [23] 5.12 µM | [24] 1.77 µM | [26] 1.49 µM | [27] 2.25 µM | [28] 1.57 µM | [29] 4.72 µM | [52] 4.61 µM | [53] 4.62 µM | [54] 1.73 µM | [37] 3.08 µM | [42] 3.37 µM | [43] 3.01 µM | [47] 12.2 µM
active: [1] 0.38 µM | [5] 0.94 µM | [13] 0.771 µM | [20] 0.447 µM | [25] 0.375 µM | [30] 0.467 µM | [33] 0.286 µM | [34] 0.275 µM | [35] 1.07 µM | [38] 0.164 µM | [39] 0.718 µM | [45] 0.275 µM

Cc1cc2c(c(/C=N/c3ccc(N(C)C)cc3)c1)OC1(C=C2)Oc2ccccc2C(=O)N1C (configuration not stated)
inactive: [1] 14.2 µM | [55] 19.7 µM | [2] 20.1 µM | [3] 12.2 µM | [56] 8.63 µM | [57] 14.6 µM | [4] 2.71 µM | [5] 17.5 µM | [58] 14 µM | [8] 12.5 µM | [9] 16.6 µM | [10] 8.22 µM | [12] 3.54 µM | [13] > 43 µM | [51] 16.4 µM | [14] 23.1 µM | [59] 21.5 µM | [15] 13.2 µM | [16] 4.97 µM | [18] 15.5 µM | [19] 13 µM | [21] 14.5 µM | [60] 16.2 µM | [61] 3.53 µM | [62] 13 µM | [63] 12.5 µM | [23] 1.75 µM | [24] 17.7 µM | [25] 23.9 µM | [26] 12.5 µM | [27] 18.7 µM | [28] 14.4 µM | [64] 16.5 µM | [29] > 35.2 µM | [52] 12.6 µM | [65] 17.7 µM | [30] 14.2 µM | [66] > 35.5 µM | [31] 5.96 µM | [32] 11.7 µM | [33] 17.1 µM | [34] 21.2 µM | [35] 10 µM | [36] 16 µM | [53] > 39.2 µM | [54] 13.9 µM | [37] 24.4 µM | [38] 15.7 µM | [39] 7.96 µM | [40] 18 µM | [42] 54.2 µM | [43] 17.3 µM | [67] 12.5 µM | [44] 16.3 µM | [45] 15.1 µM | [46] 14.7 µM | [47] 13.1 µM | [48] 9.2 µM
8.34 µM: [11]
